Data: US8715706B2, “Methods and devices for delivery of pharmaceutical agents within orifices of the body” (RDD Pharma, Ltd., priority 2009, dated 2014)

Assays:
anal sphincter [1] = experiment: Rectal manometry of resting anal pressure after Nifedipine from localized drug release system; assay type: in vivo, human; conditions: 90 minutes after insertion, N 6
Procedure: Six healthy individuals were selected for measuring resting anal pressure as a function of different doses of Nifedipine administered using a localized drug release system as per an embodiment of the present invention.
All dimensions are when empty before filling with API. When tested in a water bath, substantially all the API exited the shell within 40 minutes.
(§1) The measurements were conducted using 4 mg, 12 mg or 24 mg of Nifedipine as API, respectively. A Nifedipine (API) solution was prepared at 45 degrees Celsius in a heated water bath. A 22 gauge dispensing needle (Techon Systems) was inserted through the tail and into the coated shell of the drug release system. While the shell was evacuated of air, one milliliter of Nifedipine compound was delivered to the shell via a syringe attached to the needle. A clip was used to seal the tail and the system was left until the Nifedipine became solid.
A rectal manometry was used to measure resting anal pressure at baseline (before insertion) and 90 minutes after insertion of each shell with the relevant amount of API in a volume of one milliliter. The time of release of the API (API release time) ranged between 20-25 minutes (the variation due to changes in the normal human body temperature). FIGS. 12A and 12C graphically display the results of this study.

anal canal = conditions: topical, cited from earlier work
anal sphincter [2] = experiment: Rectal manometry of resting and squeezing anal pressure tonus after Phenylephrine from localized drug release system; assay type: in vivo, human; design: Squeeze Rectal ref max / Squeeze Abs ref mean: unit not given here
Procedure: The measurements conducted included resting anal pressure tonus and squeezing anal pressure tonus.
as §1, with “using 40” for “using 4 mg, 12”, “mg and 80” for “mg or 24”, “of Phenylephprine” for “of Nifedipine”, “A Phenylephprine” for “A Nifedipine”, “the Phenylephrine” for “the Nifedipine”
A rectal manometer was used to measure resting anal pressure tonus and squeezing anal pressure tonus at baseline (before insertion), […] amount of API in a volume of one milliliter. The API release time ranged between 20-25 minutes (the variation due to changes in the normal human body temperature). The results are shown below in Table III (40 mg) and Table IV (80 mg). Values shown in bold lettering in Table IV represent statistically significant difference (p<0.05) from baseline value, using paired t-test.

[3] = pK studies, rectal rate of absorption using drug release system; conditions: rectally, drug release system of Example 1, FIGS. 14 and 15
Text: Accordingly, it is intended to embrace all such alternatives, modifications and variations that fall within the spirit and broad scope of the appended claims.

Question: With `COC(=O)C1=C(C)NC(C)=C(C(=O)OC)C1c1ccccc1[N+](=O)[O-]` [Nifedipine] as the compound, how does the “Resting Max Pressure Rectal Ref, Max” value (anal sphincter [1]; 4 mg) read?
Answer: 151.0

Question: And the “Resting Max Pressure Rectal Ref, Mean” value (anal sphincter [1]; 4 mg)?
Answer: 111.6

Question: And the “Resting Max Pressure Rectal Ref, Median” value (anal sphincter [1]; 4 mg)?
Answer: 111.5

Question: And the “Resting Max Pressure Rectal Ref, Min” value (anal sphincter [1]; 4 mg)?
Answer: 72.2

Question: And the “Resting Mean Pressure Rectal Ref, Max” value (anal sphincter [1]; 4 mg)?
Answer: 124.0

Question: What about the “Resting Mean Pressure Rectal Ref, Mean” value (anal sphincter [1]; 4 mg) of the same compound?
Answer: 94.2

Question: And the “Resting Mean Pressure Rectal Ref, Median” value (anal sphincter [1]; 4 mg)?
Answer: 92.3

Question: What about the “Resting Mean Pressure Rectal Ref, Min” value (anal sphincter [1]; 4 mg) of the same compound?
Answer: 57.7

Question: What about the “Resting Max Pressure Rectal Ref, Max” value (anal sphincter [1]; 12 mg) of the same compound?
Answer: 187.1

Question: And the “Resting Max Pressure Rectal Ref, Mean” value (anal sphincter [1]; 12 mg)?
Answer: 105.9

Question: What about the “Resting Max Pressure Rectal Ref, Median” value (anal sphincter [1]; 12 mg) of the same compound?
Answer: 88.0

Question: And the “Resting Max Pressure Rectal Ref, Min” value (anal sphincter [1]; 12 mg)?
Answer: 79.8

Question: What about the “Resting Mean Pressure Rectal Ref, Max” value (anal sphincter [1]; 12 mg) of the same compound?
Answer: 89.4

Question: What about the “Resting Mean Pressure Rectal Ref, Mean” value (anal sphincter [1]; 12 mg) of the same compound?
Answer: 75.0

Question: What about the “Resting Mean Pressure Rectal Ref, Median” value (anal sphincter [1]; 12 mg) of the same compound?
Answer: 73.2

Question: And the “Resting Mean Pressure Rectal Ref, Min” value (anal sphincter [1]; 12 mg)?
Answer: 58.9

Question: What about the “Resting Max Pressure Rectal Ref, Max” value (anal sphincter [1]; 24 mg) of the same compound?
Answer: 153.7

Question: What about the “Resting Max Pressure Rectal Ref, Mean” value (anal sphincter [1]; 24 mg) of the same compound?
Answer: 90.2

Question: And the “Resting Max Pressure Rectal Ref, Median” value (anal sphincter [1]; 24 mg)?
Answer: 79.7

Question: And the “Resting Max Pressure Rectal Ref, Min” value (anal sphincter [1]; 24 mg)?
Answer: 58.8

Question: And the “Resting Mean Pressure Rectal Ref, Max” value (anal sphincter [1]; 24 mg)?
Answer: 80.0

Question: What about the “Resting Mean Pressure Rectal Ref, Mean” value (anal sphincter [1]; 24 mg) of the same compound?
Answer: 63.9

Question: What about the “Resting Mean Pressure Rectal Ref, Median” value (anal sphincter [1]; 24 mg) of the same compound?
Answer: 64.4

Question: And the “Resting Mean Pressure Rectal Ref, Min” value (anal sphincter [1]; 24 mg)?
Answer: 51.7

Question: Which resting pressure (anal canal; 30% and 40%, compared with placebo) does the source give for `CNC[C@H](O)c1cccc(O)c1` [Phenylephrine] here?
Answer: significant increase in resting pressure at both time points compared with placebo

Question: What about the median resting pressure (anal canal; concentrations of 10% and 20%) of the same compound?
Answer: modest increase in median resting pressure, this was not statistically significant

Question: What about the “Length HPV” value (anal sphincter [2]; 40 mg, 90 min) of the same compound?
Answer: 2.2 cm

Question: And the “Length Verge to center” value (anal sphincter [2]; 40 mg, 90 min)?
Answer: 0.8 cm

Question: What about the “Resting Abs ref Max” value (anal sphincter [2]; 40 mg, 90 min) of the same compound?
Answer: 109.0 mm Hg

Question: What about the “Resting Abs ref Mean” value (anal sphincter [2]; 40 mg, 90 min) of the same compound?
Answer: 95.0 mm Hg

Question: And the “Resting rectal ref Max” value (anal sphincter [2]; 40 mg, 90 min)?
Answer: 105.1 mm Hg

Question: And the “Resting rectal ref Mean” value (anal sphincter [2]; 40 mg, 90 min)?
Answer: 91.2 mm Hg

Question: What about the “Squeeze Abs ref mean” value (anal sphincter [2]; 40 mg, 90 min) of the same compound?
Answer: 348.7

Question: And the “Squeeze Rectal ref max” value (anal sphincter [2]; 40 mg, 90 min)?
Answer: 332.4

Question: And the “Length HPV” value (anal sphincter [2]; 40 mg, 180 min)?
Answer: 2.1 cm

Question: And the “Length Verge to center” value (anal sphincter [2]; 40 mg, 180 min)?
Answer: 0.5 cm

Question: And the “Resting Abs ref Max” value (anal sphincter [2]; 40 mg, 180 min)?
Answer: 127.8 mm Hg

Question: And the “Resting Abs ref Mean” value (anal sphincter [2]; 40 mg, 180 min)?
Answer: 93.1 mm Hg

Question: And the “Resting rectal ref Max” value (anal sphincter [2]; 40 mg, 180 min)?
Answer: 124.0 mm Hg

Question: And the “Resting rectal ref Mean” value (anal sphincter [2]; 40 mg, 180 min)?
Answer: 89.2 mm Hg

Question: What about the “Squeeze Abs ref mean” value (anal sphincter [2]; 40 mg, 180 min) of the same compound?
Answer: 336.5

Question: And the “Squeeze Rectal ref max” value (anal sphincter [2]; 40 mg, 180 min)?
Answer: 318.8

Question: And the “Length HPV” value (anal sphincter [2]; 40 mg, 240 min)?
Answer: 2.5 cm

Question: And the “Length Verge to center” value (anal sphincter [2]; 40 mg, 240 min)?
Answer: 0.8 cm

Question: What about the “Resting Abs ref Max” value (anal sphincter [2]; 40 mg, 240 min) of the same compound?
Answer: 94.2 mm Hg

Question: What about the “Resting Abs ref Mean” value (anal sphincter [2]; 40 mg, 240 min) of the same compound?
Answer: 82.5 mm Hg

Question: And the “Resting rectal ref Max” value (anal sphincter [2]; 40 mg, 240 min)?
Answer: 88.7 mm Hg

Question: And the “Resting rectal ref Mean” value (anal sphincter [2]; 40 mg, 240 min)?
Answer: 77.0 mm Hg

Question: And the “Squeeze Abs ref mean” value (anal sphincter [2]; 40 mg, 240 min)?
Answer: 376.7

Question: What about the “Squeeze Rectal ref max” value (anal sphincter [2]; 40 mg, 240 min) of the same compound?
Answer: 363.3

Question: And the “mean resting anal pressure” value (anal sphincter [2]; 80 mg in 1 cc volume (8% concentration))?
Answer: significant increase in the mean resting anal pressure

Question: What about the “Length HPV” value (anal sphincter [2]; 80 mg, 90 min) of the same compound?
Answer: 2.2 cm

Question: What about the “Length Verge to center” value (anal sphincter [2]; 80 mg, 90 min) of the same compound?
Answer: 0.5 cm

Question: And the “Resting Abs ref Max” value (anal sphincter [2]; 80 mg, 90 min)?
Answer: 139.9 mm Hg

Question: And the “Resting Abs ref Mean” value (anal sphincter [2]; 80 mg, 90 min)?
Answer: 107.6 mm Hg

Question: What about the “Resting rectal ref Max” value (anal sphincter [2]; 80 mg, 90 min) of the same compound?
Answer: 136.5 mm Hg

Question: What about the “Resting rectal ref Mean” value (anal sphincter [2]; 80 mg, 90 min) of the same compound?
Answer: 104.2 mm Hg

Question: And the “Squeeze Abs ref mean” value (anal sphincter [2]; 80 mg, 90 min)?
Answer: 364.1

Question: What about the “Squeeze Rectal ref max” value (anal sphincter [2]; 80 mg, 90 min) of the same compound?
Answer: 352.4

Question: And the “Length HPV” value (anal sphincter [2]; 80 mg, 180 min)?
Answer: 2.6 cm

Question: And the “Length Verge to center” value (anal sphincter [2]; 80 mg, 180 min)?
Answer: 0.7 cm

Question: And the “Resting Abs ref Max” value (anal sphincter [2]; 80 mg, 180 min)?
Answer: 111.8 mm Hg

Question: What about the “Resting Abs ref Mean” value (anal sphincter [2]; 80 mg, 180 min) of the same compound?
Answer: 90.8 mm Hg

Question: And the “Resting rectal ref Max” value (anal sphincter [2]; 80 mg, 180 min)?
Answer: 109.2 mm Hg

Question: And the “Resting rectal ref Mean” value (anal sphincter [2]; 80 mg, 180 min)?
Answer: 88.2 mm Hg

Question: What about the “Squeeze Abs ref mean” value (anal sphincter [2]; 80 mg, 180 min) of the same compound?
Answer: 350.7

Question: What about the “Squeeze Rectal ref max” value (anal sphincter [2]; 80 mg, 180 min) of the same compound?
Answer: 337.6

Question: What about the “Length HPV” value (anal sphincter [2]; 80 mg, 270 min) of the same compound?
Answer: 2.5 cm

Question: What about the “Length Verge to center” value (anal sphincter [2]; 80 mg, 270 min) of the same compound?
Answer: 0.9 cm

Question: And the “Resting Abs ref Max” value (anal sphincter [2]; 80 mg, 270 min)?
Answer: 96.1 mm Hg

Question: What about the “Resting Abs ref Mean” value (anal sphincter [2]; 80 mg, 270 min) of the same compound?
Answer: 83.1 mm Hg

Question: What about the “Resting rectal ref Max” value (anal sphincter [2]; 80 mg, 270 min) of the same compound?
Answer: 92.5 mm Hg

Question: And the “Resting rectal ref Mean” value (anal sphincter [2]; 80 mg, 270 min)?
Answer: 79.5 mm Hg

Question: And the “Squeeze Abs ref mean” value (anal sphincter [2]; 80 mg, 270 min)?
Answer: 340.4

Question: What about the “Squeeze Rectal ref max” value (anal sphincter [2]; 80 mg, 270 min) of the same compound?
Answer: 321.2

Question: And the “anal sphincter pressures at resting and at squeezing conditions” value (anal sphincter [2]; 40 and 80 mg)?
Answer: increased in a dose-dependent manner

Question: For Glucagon, which rate of absorption [3] is on record?
Answer: relatively quickly absorbed
